Drawing on a melting point compilation (Tetko et al.; mined from patent text by program, amines drawn as free bases though some values may be those of a salt), this text covers melting point for 88 compounds.

Bounds are passed on as bounds.

Usually melting point stands for the temperature, or range, at which the solid turns liquid. As for `O=C(Nc1ccccc1)O[C@@H]1CN=C(c2ccc3ccccc3c2)O[C@H]1c1ccccc1` (racemic), the melting point turned out to be 163 °C.
Consider `CC(C)(C)OC(=O)Nc1ccc(C#Cc2ccc(F)cc2F)cc1[N+](=O)[O-]`, for which the melting point fell in the range of 134 to 136 °C.
The same measure for `CC(C)CN1CCCC1CNC(=O)c1cc(S(N)(=O)=O)cc2c1OC(C)C2` (stereo not drawn): 182 to 184 °C; for `CC(C)NC(=O)C(Cc1ccccc1)NC(=O)Nc1n[nH]c(=S)s1` (stereo not drawn): 206 to 211 °C.
The same measure for `CCOP(=O)(Cc1nnc2c(=O)[nH]c3ccc(C(F)(F)F)cc3n12)OCC`: 204 to 208 °C; for `CC1(C)CC(=O)C(C(=O)Nc2cc(F)cc(F)c2)C(=O)C1F` (stereo not drawn): 131 to 132 °C; for `O=C1NC(=O)c2c1c(-c1ccccc1)cc1c2c2cc(O)ccc2n1CCCn1ccnc1`: 309 to 311 °C.
The result for `CC12CC3(C)CC(Br)(C1)CC(Br)(C2)C3` reads 115 to 116 °C.
Compound `Cc1ccc(Oc2ccc(C)cc2C(=O)O)cc1` displayed a melting point of 113 to 115 °C.
The same measure for `CC(=O)CC1CC2CN(C(=O)c3ccccc3)c3cccc(c32)C1=O` (stereo not drawn): 117 to 119 °C.
The result for `Cc1ccccc1-c1cn(C)cc(-c2cccc(C(F)(F)F)c2)c1=S` reads 193 to 195 °C; that for `N#CSCC(Cl)=C(Cl)CSC#N`, 166 to 169 °C; that for `N=C1SCCN1c1ccc(N)cc1[N+](=O)[O-]`, 138 to 139 °C.
The same measure for `O=Cc1cc(N2C(=O)C3=C(CCCC3)C2=O)ccc1Cl`: 140 to 141 °C.
For the compound `NC(=O)NCc1cc2c(Oc3ccc(Cl)cc3)cncc2s1`, the melting point was 202 to 204 °C.
The result for `COc1cccc2c(CCCCN(CC3CC3)C3COc4c(F)ccc(C(N)=O)c4C3)coc12` (stereo not drawn) reads 114 to 120 °C; that for `COc1cc(-c2ccc(N)cn2)cc(OC)c1OC`, 154 to 156 °C; that for `COc1cc(OC)c2c(c1)OCC(CNCCCOc1cccc(N)c1)O2` (stereo not drawn), 123 to 128 °C.
The result for `CC(=O)NCc1coc2c(OC(C)=O)cccc12` reads 138 to 139 °C; that for `O=C(NCCO)/C(=C/c1ccc(OC(F)(F)F)cc1)NC(=O)c1ccc(Oc2ccc(C(F)(F)F)cc2)cc1`, 84 to 86 °C; that for `CCCOc1cc(C(=O)O)cc(N)c1Cc1ccccc1`, 161 to 162 °C.
The same measure for `CCc1cccc(CC)c1NC(=O)CC1c2ccccc2Oc2ccccc21`: 228 to 230 °C; for `COc1cc(CO)c(OC)c2ccccc12`: 63 to 66 °C.
Take `O=C(O)COCc1nn(Cc2ccc(F)cc2)c2ccccc12`: the melting point lay within 135 to 136 °C.
The result for `CC(=O)Nc1ccc(OCCOCCO)cc1` reads 94 °C; that for `Cc1ccc(-c2c(NS(=O)(=O)c3ccc(C(C)(C)C)cc3)nc(C(C)C)nc2OCCO)cc1`, 143 to 144 °C.
Turning to `CCOCc1nc2c(N)nc3ccccc3c2n1CCCC(=O)N(C)OC`, the melting point lay in the range of 163 to 165 °C.
The same measure for `N#Cc1cccc2[nH]ccc12`: 115 to 116 °C.
Compound `CC(C)OC(=O)C1=C2SCC(=CC(=O)N(C)C)N2CC1C` (stereo not drawn) displayed a melting point of 126 to 128 °C.
The result for `CC(CN1C(=O)C2(COc3cc4c(cc32)CCO4)c2ccccc21)OCc1ccccc1` (stereo not drawn) reads 45 to 47 °C.
The result for `COc1ccc(C(=CC=O)c2ccc(OC)c(OC)c2)cc1OC` reads 129 to 130 °C.
The result for `CC(=O)Nc1cccc(-n2c(=O)c(CCCc3ccncc3)cc3cccnc32)c1` reads 200 to 202 °C; that for `Nc1c(Cl)cccc1SSc1cccc(Cl)c1N`, 87 to 88 °C.
`Cc1c(NC(=O)c2ccc(-c3ccc(F)cc3)cc2F)ccc2cc(CN3CCCC3)cnc12` returned a melting point of 176 to 178 °C.
The same measure for `COc1ccc(N=C(C#Cc2ccccc2OC)N2CCN(Cc3ccc(C)cc3)CC2)cc1`: 83 °C; for `Clc1cccc(Nc2ncc3cc4ccccc4n3n2)c1`: 174 to 176 °C.
The result for `COc1ccc2c(c1)CC(C)CC2=O` (stereo not drawn) reads 70.5 to 70.6 °C; that for `Nc1cc(=O)nc(Nc2ccccc2)n1-c1ccccc1`, 202 to 206 °C.
The same measure for `COc1cccc(C(=O)Nc2ccc(-n3nc(C(F)(F)F)cc3C(F)(F)F)cc2)c1`: 169 to 172 °C.
Compound `COc1cc2c(cc1O)C(Cc1c(OC)cccc1[N+](=O)[O-])N(C)CC2` (stereo not drawn) showed a melting point of 163 to 165 °C.
The result for `N#Cc1cccc(-c2cccs2)n1` reads 88.2 to 88.6 °C.
In turn, `O=[N+]([O-])c1ccccc1Sc1ccc(Cl)cc1` yielded a melting point of 91 to 93 °C.
The result for `CCOC(=O)C1=C(NC(=O)Nc2ccc(Cl)c(C(=O)OCC)c2)CCC1` reads 110 to 112 °C.
The same measure for `C=C(C)C(=O)OCCCCCCOc1ccc(/C=C/C(=O)OC)cc1`: 45 to 50 °C.
For `COCOc1c(NC(=O)NCc2cccnc2)cc(OC)cc1C(C)(C)C`, the melting point was 108 to 109 °C.
The result for `COc1ccc(Br)c(C(=O)NNS(=O)(=O)c2ccccc2)c1` reads 150 to 152 °C; that for `COc1c(C)cc(C(=O)N2CCN(c3ncccc3NC(C)C)CC2)cc1C`, 89 to 93 °C; that for `O=C(c1ccccc1)C(Cl)(Cl)C1CCCCC1`, 92.5 to 94 °C.
`CC1(C)C(=NO)C(c2ccccc2)=C1c1ccc(S(C)(=O)=O)cc1` had a melting point of 217 to 220 °C.
The same measure for `COc1cc(C)ccc1S(=O)(=O)NC(=O)C(c1cc(OC)c2c(c1)OCO2)c1cn(C)c2cc(CO)ccc12` (stereo not drawn): 145 to 147 °C.
The same measure for `CCCCC1=C(C(=O)O)Nc2ccc(C(=O)O)cc2C1O` (stereo not drawn): greater than 260 °C; for `CC/C(=C\C=C\C(O)(C(F)(F)F)C(F)(F)F)c1ccc(COc2ccc(CO)c(CO)c2)s1`: 113 to 114 °C; for `CC(=O)Nc1cc(F)c(OC(F)F)cc1[N+](=O)[O-]`: 72 to 74 °C.
The result for `COC1(c2ccccc2)N=CC(=O)N(C)c2ccc(Cl)cc21` (stereo not drawn) reads 146 to 147 °C; that for `N#Cc1cnc2cc(F)ccc2c1Cl`, 163 to 165 °C.
In turn, `O=C1Nc2ccc(I)cc2C1=NNC(=O)c1ccc(O[C@@H](Cc2ccccc2)C(=O)OCc2ccccc2)cc1` yielded a melting point of 194 °C.
Turning to `COC(=O)Nc1nc(C)c(-c2nc3ccccc3c(=O)n2-c2ccc(Cl)cc2)s1`, the melting point is greater than 275 °C.
The same measure for `CCOCCOCCOCCOc1cc(OCCCCCCCCCCCCOc2ccccc2)cc(N(CC(=O)OC)CC(=O)OC)c1`: less than 24 °C.
The same measure for `CCCCCCC(C)(C)c1ccc([C@@H]2CCC[C@H](O)C2)c(O)c1` (relative stereo): 109 to 110 °C.
The same measure for `Cc1ccc(C(=O)n2c3c(c4cc(C)ccc42)CC(C(=O)O)CC3)cc1` (stereo not drawn): 200 to 203 °C; for `CCCc1c(COc2ccc(-c3nnn(CCCN(C)C)n3)cc2)ccc(C(C)=O)c1O`: 89 to 91 °C; for `CCN(CC)Cc1nc(-c2ncn3c2[C@@H]2CCN2C(=O)c2c(Br)cccc2-3)no1`: 206 to 209 °C.
`O=C(O)C1=Cc2ccccc2SC1C(F)(F)F` (stereo not drawn) came in with a melting point of 187 to 190 °C.
The result for `CCCCOc1ccccc1C1=NC(=O)C2=NC=NC2=N1` reads 247 to 248 °C.
For `COC(=O)C1=C(C)Nc2ccccc2SC1c1ccc(C)cc1` (stereo not drawn), the melting point was in the range of 148 to 150 °C.
`NS(=O)(=O)c1ccc(-n2sc3cc(F)ccc3c2=O)cc1` displayed a melting point of 265 to 266 °C.
The result for `O=C(O)c1ccc(C2OC23Cc2ccccc2C3=O)cc1` (stereo not drawn) reads 220 °C.
Consider `CC1(C)Cc2nc(C3CCCC3)c(C(F)c3ccc(C(F)(F)F)cc3)c(-c3ccc(F)c(F)c3)c2C(O)C1` (stereo not drawn), for which the melting point was in the range of 149 to 150 °C.
The result for `CC(COc1c(-c2ccccc2)c(=O)oc2ccccc12)CN1CCOCC1` (stereo not drawn) reads 113 °C; that for `CC(=O)Nc1ccc([N+](=O)[O-])s1`, 226 °C; that for `O=P(OC1=Nc2ccc(Cl)cc2C(c2ccccc2Cl)=NC1)(N1CCOCC1)N1CCOCC1`, 185 to 187 °C.
The result for `NC1CCN(c2c(F)cc3c(=O)c(C(=O)O)cn(C4CC4)c3c2Cl)C1` (stereo not drawn) reads 241 to 242 °C; that for `CC(C)C1(C)N=C(c2nc3ccsc3cc2C(=O)O)NC1=O` (stereo not drawn), 242 to 244 °C.
The result for `CN(C)C(=O)c1ccc(-c2ccc3nnn(Cc4ccc5ncccc5c4)c3n2)cc1F` reads 163 to 165 °C; that for `CCOC(=O)c1cccc2nc3cc(C(=O)c4ccccc4)ccc3nc12`, 115 to 116 °C.
`CC(=O)Nc1cc(N)c(Cl)cc1F` came in with a melting point of 142 to 143 °C.
The same measure for `Cc1oc(-c2ccccc2)nc1C(C)O` (stereo not drawn): 101 to 102 °C.
In the case of `COc1ccc(C2=NN(C3CCCCCC3)C(=O)[C@H]3CC=CC[C@@H]23)c2c1OC(C)(C)C2` (relative stereo), the melting point was in the range of 114 to 115 °C.
The same measure for `CCCc1cccc(C2(c3ccc(OC(F)(F)F)cc3)N=C(N)N3CCCN=C32)c1` (stereo not drawn): 75 to 79 °C; for `O=C(Cc1ccccc1Cl)Nc1ccc(C(=O)N2Cc3ccccc3Cc3ccccc32)cc1`: 191 to 194 °C.
The result for `NC(=O)c1ccc2c(c1)C1(COc3cc4c(cc31)OCCO4)C(=O)N2Cc1ccccn1` (stereo not drawn) reads 220 to 222 °C; that for `Cc1cc(Cl)nc(S(C)(=O)=O)n1`, 72 °C; that for `Cc1cccc(CC2CCN(C(=O)C(=O)Nc3ccc4[nH]c(=O)oc4c3)CC2)c1`, 204 to 208 °C.
The result for `CCN(CC)C(=O)c1ccc2ccccc2c1-c1ccccc1C` reads 150 to 152 °C; that for `COc1ccc(-c2ccc3c(=O)[nH]c(=O)[nH]c3n2)cc1COC(=O)C(C)(C)C`, 260 to 266 °C; that for `CC(=O)Nc1cccc2c1CCN(C(C)=O)C2`, 154 to 156 °C.
In turn, `COc1ccc(S(=O)(=O)C2(C(=O)O)CCN(CCCc3ccccc3)CC2)cc1` displayed a melting point of 203 °C.
The result for `N#CC(C(=O)Nc1cccc(C(F)(F)F)c1)C(=O)c1ccc[nH]1` (stereo not drawn) reads 210 to 212 °C.
